*1 amine or outer side, *2 acyl side, *3 side chain or, on linkers, in order; H or OH if unused. Where a SMILES comes first, the peptide text is derived from it. Bridges are numbered along the chain shown (N, C = ends). [ ]: non-standard residue; d: D form. The star is where a group is joined. X23 = O=C(CCCCCc1cccnc1)N[C@@H](CCN[*:2])C(=O)[*:1]; NH(4-(3-pyridyl)butyl) = c1cncc(CCCCN*)c1; Phe(4-Me) = Cc1ccc(C[C@H](N)C(=O)O)cc1; 2Nal = N[C@@H](Cc1ccc2ccccc2c1)C(=O)O; AEF = NCCOc1ccc(C[C@H](N)C(=O)O)cc1; αMeL = CC(C)C[C@](C)(N)C(=O)O

The target in the first test is T1, human IL-23R (Homo sapiens, UniProt Q5VWK5).
T1 sequence (Q5VWK5 22-629): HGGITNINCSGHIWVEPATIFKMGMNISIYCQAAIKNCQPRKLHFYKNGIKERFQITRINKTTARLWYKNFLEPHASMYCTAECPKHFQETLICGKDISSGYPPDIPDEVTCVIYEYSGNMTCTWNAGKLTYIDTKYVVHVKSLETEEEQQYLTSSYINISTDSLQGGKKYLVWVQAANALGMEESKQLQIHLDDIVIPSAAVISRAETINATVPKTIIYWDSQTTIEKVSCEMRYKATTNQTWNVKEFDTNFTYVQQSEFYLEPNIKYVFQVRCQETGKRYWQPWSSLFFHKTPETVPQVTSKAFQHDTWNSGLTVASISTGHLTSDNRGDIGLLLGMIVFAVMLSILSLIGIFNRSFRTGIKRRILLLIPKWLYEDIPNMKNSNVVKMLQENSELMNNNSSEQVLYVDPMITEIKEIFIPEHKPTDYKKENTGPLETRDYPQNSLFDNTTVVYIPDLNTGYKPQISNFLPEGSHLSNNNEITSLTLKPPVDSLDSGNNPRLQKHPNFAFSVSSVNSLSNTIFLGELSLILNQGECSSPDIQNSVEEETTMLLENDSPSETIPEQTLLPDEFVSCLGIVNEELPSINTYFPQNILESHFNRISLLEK
The experiment in a line: biochemical.
Settings: not given
An excerpt: The compound binding affinity for IL-23R was estimated by the ability of compounds to displace a fluorophore-labelled reference compound from the human IL-23R. The assay principle relies on Bioluminescence Resonance Energy Transfer (BRET) between a fluorophore-labelled reference compound binding to the IL-23R part of a fusion protein consisting of the IL-23R fused to a Nanoluc luciferase enzyme (Nanoluc). The Nanoluc is placed in the N-terminus in close proximity to the binding domain of the ligand. Upon close proximity between the fluorophore of the fluorophore-labelled compound and the Nanoluc of the fusion protein, bioluminescence energy generated from conversion of a Nanoluc substrate, is transferred to the fluorophore resulting in an increase in BRET. In presence of an unlabelled compound, the unlabelled compound displaces the fluorophore-labelled peptide from its binding site resulting in a decrease in BRET. The concentration for which half of the fluorophore-labelled peptide is displaced by the unlabelled compound depends on the affinity of the compound for the IL-23R, and is termed the IC50 concentration.
The plasmid also contained a gene to confer resistance for the antibiotic hygromycin. A cell line stably expressing the Nluc-IL23R fusion protein was generated by transfection of HEK293 cells with the expression plasmid and selected with hygromycin for 3 weeks in Growth medium consisting of DMEM w/ Glutamax-I containing, 10% V/V FBS, 1% V/V P/S, 1 mM Sodium Pyruvate, and 1X NEAA, and 0.3 mg/mL hygromycin. The remaining cells were propagated and considered a stable expressing Nluc-IL23R fusion protein pool clone.
Cells expressing the Nluc-IL23R fusion protein were expanded in Growth medium and membranes prepared by homogenization of a cell pellet from 18 T175 flasks (4 °C in subsequent steps). The cell pellet was lysed Tris 10 mM, 7.5, 1 mM EDTA and protease inhibitors (Complete, Roche) and homogenized using a 15 mL glass-dounce by 50 strokes. The homogenate was spun at spin @1500 rpm for 10 min, the supernatant transferred to SV-34 tubes and spun at 40000g for 20 min at 4 °C to pellet the crude membranes. The supernatant was then removed, the pellet resuspended in 5 mL buffer containing 50 mM HEPES pH 7.4, 5 mM EGTA, and 5 mM MgCl2, and homogenized. Aliquots of the resuspended and homogenized membranes containing the Nluc-IL23R fusion protein were stored at -80 °C until use.
The plate was sealed with light impermeable plate seals, and incubated on an orbital shaker 400 rpm for 2 hours at room temperature. To determine the BRET ratio, the plate seal was removed and 25 µL of the Nanoluc substrate (Promega N1572) diluted 1:500 was added to each well and incubated for 1-2 minutes on an orbital shaker at 400 rpm. […] The BRET ratio was calculated as the fluorescence from the TAMRA/nanoluc bioluminescence.
Compound potency (IC50) and maximal displacement (% displacement) were estimated by computer-aided curve fitting using a 4-parameter logistic (4PL) non-linear model. […]
In this application, the inventors provide the data as IC50 values.
Take `CC[C@H](C)[C@@H]1NC(=O)[C@@H]2CCCCNC(=O)CC[C@@H](C(=O)N[C@@H](CCN)C(=O)N[C@H](Cc3cccnc3)C(N)=O)NC(=O)[C@](C)(C(C)C)NC(=O)[C@H](Cc3ccc4ccccc4c3)NC(=O)[C@H](Cc3ccc(C)cc3)NC(=O)[C@H](CCC(=O)N2)NC(=O)[C@H](CCC(N)=O)NC(=O)[C@H](Cc2c[nH]c3ccccc23)NC(=O)[C@H](C(C)C)NC1=O` [Compound 18, K(1c)(6c)^†IVWQE(6c)[F(4-Me)][2-Nal][2-Me-Val]E(1c)[Dab][{d}3-(3-Pyridyl)-Ala]-[NH2]]: the “% displacement (hIL-23R NIuc)” value is 100% and the half-maximal inhibitory concentration (IC50) was 8.5 nM.

Turning to `CC[C@H](C)[C@@H]1NC(=O)[C@@H]2CCCCNC(=O)CC[C@@H](C(=O)NCC(=O)N[C@H](Cc3cccnc3)C(N)=O)NC(=O)[C@](C)(C(C)C)NC(=O)[C@H](Cc3ccc4ccccc4c3)NC(=O)[C@H](CC3CC3)NC(=O)[C@H](CCC(=O)N2)NC(=O)[C@H](CCC(N)=O)NC(=O)[C@H](Cc2c[nH]c3ccccc23)NC(=O)[C@H](C(C)C)NC1=O` [Compound 20, K(1c)(6c)^†IVWQE(6c)[Cyclopropyl-Ala][2-Nal][2-Me-Val]E(1c)G[{d}3-(3-Pyridyl)-Ala]-[NH2]], the “% displacement (hIL-23R NIuc)” value amounted to 108% and the midpoint of inhibition, the IC50, lay at 150 nM. For `CC[C@H](C)[C@@H]1NC(=O)[C@@H]2CCCCNC(=O)CC[C@@H](C(=O)NCC(=O)N[C@H](Cc3cccnc3)C(N)=O)NC(=O)[C@](C)(C(C)C)NC(=O)[C@H](Cc3ccc4ccccc4c3)NC(=O)[C@](C)(Cc3ccccc3)NC(=O)[C@H](CCC(=O)N2)NC(=O)[C@H](CCC(N)=O)NC(=O)[C@H](Cc2c[nH]c3ccccc23)NC(=O)[C@H](C(C)C)NC1=O` [Compound 21, K(1c)(6c)^†IVWQE(6c)[2-Me-Phe][2-Nal][2-Me-Val]E(1c)G[{d}3-(3-Pyridyl)-Ala]-[NH2]] the same measures were 101% and 1000 nM. The molecule `CC[C@H](C)[C@@H]1NC(=O)[C@@H]2CCCCNC(=O)CC[C@@H](C(=O)NCC(=O)N[C@H](Cc3cccnc3)C(N)=O)NC(=O)[C@](C)(C(C)C)NC(=O)[C@H](Cc3ccc4ccccc4c3)NC(=O)[C@@H](Cc3ccccc3)NC(=O)[C@H](CCC(=O)N2)NC(=O)[C@H](CCC(N)=O)NC(=O)[C@H](Cc2c[nH]c3ccccc23)NC(=O)[C@H](C(C)C)NC1=O` [Compound 22, K(1c)(6c)^†IVWQE(6c)[{d}F][2-Nal][2-Me-Val]E(1c)G[{d}3-(3-Pyridyl)-Ala]-[NH2]] had an IC50 of 980 nM. In the case of `CC[C@H](C)[C@@H]1NC(=O)[C@@H]2CCCCNC(=O)CC[C@@H](C(=O)NCC(=O)N[C@H](Cc3cccnc3)C(N)=O)NC(=O)[C@](C)(C(C)C)NC(=O)[C@H](CC3CC3)NC(=O)[C@H](Cc3ccc(C)cc3)NC(=O)[C@H](CCC(=O)N2)NC(=O)[C@H](CCC(N)=O)NC(=O)[C@H](Cc2c[nH]c3ccccc23)NC(=O)[C@H](C(C)C)NC1=O` [Compound 23, K(1c)(6c)^†IVWQE(6c)[F(4-Me)][Cyclopropyl-Ala][2-Me-Val]E(1c)G[{d}3-(3-Pyridyl)-Ala]-[NH2]], the “% displacement (hIL-23R NIuc)” value was 111% and the half-maximal inhibitory concentration (IC50) was 89 nM.

Regarding `CC[C@H](C)[C@@H]1NC(=O)[C@@H]2CCCCNC(=O)CC[C@@H](C(=O)NCCc3cccnc3)NC(=O)[C@](C)(C(C)C)NC(=O)[C@H](Cc3ccc4ccccc4c3)NC(=O)[C@H](Cc3ccc(OCCN)cc3)NC(=O)[C@@H](CCC(=O)N2)NC(=O)[C@H](CCC(N)=O)NC(=O)[C@H](Cc2c[nH]c3ccccc23)NC(=O)[C@H](C(C)C)NC1=O` [Compound 27, K(1c)(6c)^†VWQ[{d}E](6c)[Y(2-aminoethoxy)][2-Nal][2-Me-Val]E(1c)-[NH-2-(pyridin-3-yl)ethyl]], the “% displacement (hIL-23R NIuc)” value is given as 102% and the IC50 turned out to be 110 nM. In the same order, the values of `CC[C@H](C)[C@@H]1NC(=O)[C@@H]2CCCCNC(=O)CC[C@@H](C(=O)NCCCCc3cccnc3)NC(=O)[C@](C)(C(C)C)NC(=O)[C@H](Cc3ccc4ccccc4c3)NC(=O)[C@H](Cc3ccc(OCCN)cc3)NC(=O)[C@H](CCC(=O)N2)NC(=O)[C@H](CCC(N)=O)NC(=O)[C@H](Cc2c[nH]c3ccccc23)NC(=O)[C@H](C(C)C)NC1=O` [Compound 28, K(1c)(6c)^†IVWQE(6c)[Y(2-aminoethoxy)][2-Nal][2-Me-Val]E(1c)-[NH-4-(pyridin-3-yl)butanyl]] are 97% and 200 nM. The molecule `CC[C@H](C)[C@@H]1NC(=O)[C@@H]2CCCCNC(=O)CC[C@@H](C(=O)NCCCCCCc3cccnc3)NC(=O)[C@](C)(C(C)C)NC(=O)[C@H](Cc3ccc4ccccc4c3)NC(=O)[C@H](Cc3ccc(OCCN)cc3)NC(=O)[C@H](CCC(=O)N2)NC(=O)[C@H](CCC(N)=O)NC(=O)[C@H](Cc2c[nH]c3ccccc23)NC(=O)[C@H](C(C)C)NC1=O` [Compound 29, K(1c)(6c)^†IVWQE(6c)[Y(2-aminoethoxy)][2-Nal][2-Me-Val]E(1c)-[NH-6-(pyridin-3-yl)hexanyl]] yielded a half-inhibitory concentration (IC50) of 480 nM. In the case of `CC(C)C[C@]1(C)NC(=O)[C@H](Cc2ccc3ccccc3c2)NC(=O)[C@H](Cc2ccc(OCCN)cc2)NC(=O)[C@@H]2CCC(=O)N[C@@H](CCCCNC(=O)CC[C@@H](C(=O)NCCCCc3cccnc3)NC1=O)C(=O)N[C@@H](CO)C(=O)N[C@@H](C(C)C)C(=O)N[C@@H](Cc1c[nH]c3ccccc13)C(=O)N[C@@H](CCC(N)=O)C(=O)N2` [Compound 30, K(1c)(6c)^†SVWQE(6c)[Y(2-aminoethoxy)][2-Nal][2-Me-Leu]E(1c)-[NH-4-(pyridin-3-yl)butanyl]], the “% displacement (hIL-23R NIuc)” value is recorded as 101% and half-maximal inhibition (IC50) required 20 nM. For the molecule `CC(C)[C@@H]1NC(=O)[C@H](CO)NC(=O)[C@@H]2CCCCNC(=O)CC[C@@H](C(=O)NCCCCc3cccnc3)NC(=O)CNC(=O)[C@H](Cc3ccc4ccccc4c3)NC(=O)[C@H](Cc3ccc(OCCN)cc3)NC(=O)[C@H](CCC(=O)N2)NC(=O)[C@H](CCC(N)=O)NC(=O)[C@H](Cc2c[nH]c3ccccc23)NC1=O` [Compound 31, K(1c)(6c)^†SVWQE(6c)[Y(2-aminoethoxy)][2-Nal]GE(1c)-[NH-4-(pyridin-3-yl)butanyl]] (KSVWQE[AEF][2Nal]GE-{NH(4-(3-pyridyl)butyl)}; lactam 1-10, N-6), the “% displacement (hIL-23R NIuc)” value was 98%.

The same test, now with this note: read-out: % displacement (hIL-23R NIuc).
Turning to `CC[C@H](C)[C@@H]1NC(=O)[C@@H]2CCCCNC(=O)CC[C@@H](C(=O)NCC(=O)N[C@H](Cc3cccnc3)C(N)=O)NC(=O)[C@](C)(C(C)C)NC(=O)[C@H](Cc3ccc4ccccc4c3)NC(=O)[C@@H](Cc3ccccc3)NC(=O)[C@H](CCC(=O)N2)NC(=O)[C@H](CCC(N)=O)NC(=O)[C@H](Cc2c[nH]c3ccccc23)NC(=O)[C@H](C(C)C)NC1=O` [Compound 22, K(1c)(6c)^†IVWQE(6c)[{d}F][2-Nal][2-Me-Val]E(1c)G[{d}3-(3-Pyridyl)-Ala]-[NH2]], the Emax was found to be 86%.

With `Cc1ccc(C[C@@H]2NC(=O)[C@@H]3CCC(=O)N[C@@H](CCCCNC(=O)[C@@H](NC(=O)CCCCCc4cccnc4)CCNC(=O)[C@](C)(CC(C)C)NC(=O)[C@H](Cc4ccc5ccccc5c4)NC2=O)C(=O)N[C@@H]([C@@H](C)O)C(=O)N[C@@H](C(C)C)C(=O)N[C@@H](Cc2c[nH]c4ccccc24)C(=O)N[C@@H](CCC(N)=O)C(=O)N3)cc1` [Compound 25, K(1c)(6c)^†TVWQE(6c)[Y(2-aminoethoxy)][2-Nal][2-Me-Leu][iso-Dab](1c)^‡-[6-(3-pyridyl)hexanoyl]] (KTVWQE[Phe(4-Me)][2Nal][αMeL]; linker 1-C via X23; lactam N-6), the Emax amounted to 91%. The same measure, in the same setting: under `CC[C@H](C)[C@@H]1NC(=O)[C@@H]2CCCCNC(=O)CC[C@@H](C(=O)NCCCCCCc3cccnc3)NC(=O)[C@](C)(C(C)C)NC(=O)[C@H](Cc3ccc4ccccc4c3)NC(=O)[C@H](Cc3ccc(OCCN)cc3)NC(=O)[C@H](CCC(=O)N2)NC(=O)[C@H](CCC(N)=O)NC(=O)[C@H](Cc2c[nH]c3ccccc23)NC(=O)[C@H](C(C)C)NC1=O` [Compound 29, K(1c)(6c)^†IVWQE(6c)[Y(2-aminoethoxy)][2-Nal][2-Me-Val]E(1c)-[NH-6-(pyridin-3-yl)hexanyl]] stands 95%.

Source of the values: EP4471048A1, “PEPTIDE INHIBITORS OF INTERLEUKIN-23 RECEPTOR” (Zealand Pharma A/S, priority 2023, dated 2024).
